Assay results: patent US9073881B2, “Benzoic acid derivatives” (HOFFMANN-LA ROCHE INC., priority 2011, dated 2015)

target: Human eIF4E (Homo sapiens (Human), UniProt P06730); assay: Human eIF4E/4G binding assay (time-resolved fluorescence, HH-eIF4E and biotin-labeled 4G2 peptide); settings: inhibition of binding of His-tagged human eIF4E (aa 28-217) to biotin-labeled 4G2 peptide
Sequence (P06730 28-217): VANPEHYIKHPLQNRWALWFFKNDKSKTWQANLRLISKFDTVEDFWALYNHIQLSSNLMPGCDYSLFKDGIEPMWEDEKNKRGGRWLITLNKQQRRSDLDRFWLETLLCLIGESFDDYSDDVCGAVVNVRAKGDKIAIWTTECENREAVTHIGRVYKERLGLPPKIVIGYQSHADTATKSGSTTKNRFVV

Row | Structure (SMILES) | IC50
1 | O=C(NCc1cccc(C(F)(F)F)c1)c1ccc(-c2ccc(-c3nc(-c4ccc(Cl)c(Cl)c4)cs3)cc2C(=O)O)cc1 [Example 71, 4-[4-(3,4-Dichloro-phenyl)-thiazol-2-yl]-4′-(3-trifluoromethyl-benzylcarbamoyl)-biphenyl-2-carboxylic acid] | 3.2 µM
2 | O=C(O)c1cc(-c2nc(-c3ccc(Cl)c(Cl)c3)cs2)ccc1-c1cncc(Cl)c1 [Example 102, 2-(5-Chloro-pyridin-3-yl)-5-[4-(3,4-dichloro-phenyl)-thiazol-2-yl]-benzoic acid] | 5.4 µM
3 | O=C(O)c1cc(-c2nc(-c3ccc(Cl)c(Cl)c3)cs2)ccc1-c1ccc(C(=O)N2CCCC2)cc1 [Example 57, 4-[4-(3,4-Dichloro-phenyl)-thiazol-2-yl]-4′-(pyrrolidine-1-carbonyl)-biphenyl-2-carboxylic acid] | 4.3 µM
4 | O=C(O)c1cc(-c2nc(-c3cccc(Br)c3)cs2)ccc1-c1ccccc1[N+](=O)[O-] [Example 26, 4-[4-(3-Bromo-phenyl)-thiazol-2-yl]-2′-nitro-biphenyl-2-carboxylic acid] | 3 µM
5 | COc1ncc(-c2ccc(-c3nc(-c4ccc(Cl)c(Cl)c4)cs3)cc2C(=O)O)cn1 [Example 83, 5-[4-(3,4-Dichloro-phenyl)-thiazol-2-yl]-2-(2-methoxy-pyrimidin-5-yl)-benzoic acid] | 14 µM
6 | O=C(O)c1cc(-c2nc(-c3ccc(Cl)c(Cl)c3)cs2)ccc1-c1ccc([N+](=O)[O-])cc1 [Example 45, 4-[4-(3,4-Dichloro-phenyl)-thiazol-2-yl]-4′-nitro-biphenyl-2-carboxylic acid] | 4.1 µM
7 | Cc1ccccc1-c1ccc(-c2nc(-c3ccc(Cl)c(Cl)c3)cs2)cc1C(=O)O [Example 141, 4-[4-(3,4-Dichloro-phenyl)-thiazol-2-yl]-2′-methyl-biphenyl-2-carboxylic acid] | 5.9 µM

Molecules with a lower IC50, results first:

Row | IC50 | Structure (SMILES)
8 | 1.7 µM | N#Cc1ccc(Cl)cc1-c1ccc(-c2nc(-c3ccc(Cl)c(Cl)c3)cs2)cc1C(=O)O [Example 110, 5′-Chloro-2′-cyano-4-[4-(3,4-dichloro-phenyl)-thiazol-2-yl]-biphenyl-2-carboxylic acid]
9 | 1.8 µM | COc1cccc(Cl)c1-c1ccc(-c2nc(-c3ccc(Cl)c(Cl)c3)cs2)cc1C(=O)O [Example 90, 2′-Chloro-4-[4-(3,4-dichloro-phenyl)-thiazol-2-yl]-6′-methoxy-biphenyl-2-carboxylic acid]
10 | 2.1 µM | O=C(O)c1cc(-c2nc(-c3ccc(Cl)c(Cl)c3)cs2)ccc1-c1cccc(Cl)c1Cl [Example 152, 2′,3′-Dichloro-4-[4-(3,4-dichloro-phenyl)-thiazol-2-yl]-biphenyl-2-carboxylic acid]
11 | 1.4 µM | O=C(O)c1cc(-c2nc(-c3ccc(Cl)c(Cl)c3)cs2)ccc1-c1ccc(Cl)cc1Cl [Example 150, 2′,4′-Dichloro-4-[4-(3,4-dichloro-phenyl)-thiazol-2-yl]-biphenyl-2-carboxylic acid]
12 | 2.9 µM | O=C(NCCc1ccccc1)c1ccc(-c2ccc(-c3nc(-c4ccc(Cl)c(Cl)c4)cs3)cc2C(=O)O)cc1 [Example 67, 4-[4-(3,4-Dichloro-phenyl)-thiazol-2-yl]-4′-phenethylcarbamoyl-biphenyl-2-carboxylic acid]
13 | 2.8 µM | O=C(O)c1cc(-c2nc(-c3ccc(Cl)c(Cl)c3)cs2)ccc1-c1ccccc1[N+](=O)[O-] [Example 15, 4-[4-(3,4-Dichloro-phenyl)-thiazol-2-yl]-2′-nitro-biphenyl-2-carboxylic acid]
